According to ChEMBL document CHEMBL1157823, “Cyclopeptide Smac mimetics as antagonists of IAP proteins” (Bioorg Med Chem Lett, 2010):

Experiments:
[1] = test system: MDA-MB-231; assay: Cytotoxicity against human MDA-MB-231 cells after 4 days by WST-8 assay; settings: MDA-MB-231, 96 h
[2] = molecular target: T1, E3 ubiquitin-protein ligase XIAP (Homo sapiens, UniProt P98170); assay: Binding affinity to XIAP linker BIR2-BIR3 domain site 2 by fluorescence polarization assay
[3] = molecular target: T1, E3 ubiquitin-protein ligase XIAP; assay: Antagonist activity at XIAP BIR3 domain assessed as restoration of caspase 9 activity by caspase-Glo 9 assay; type: functional
[4] = molecular target: Baculoviral IAP repeat-containing protein 2 (Homo sapiens, UniProt Q13490); assay: Binding affinity to cIAP1 BIR3 domain by fluorescence polarization assay
[5] = molecular target: T1, E3 ubiquitin-protein ligase XIAP; assay: Binding affinity to XIAP linker BIR2-BIR3 domain site 1 by fluorescence polarization assay
[6] = test system: SK-OV-3; assay: Cytotoxicity against human SKOV3 cells after 4 days by WST-8 assay; settings: SK-OV-3, 96 h

T1 sequence (P98170 whole entry, the tested form may be a part): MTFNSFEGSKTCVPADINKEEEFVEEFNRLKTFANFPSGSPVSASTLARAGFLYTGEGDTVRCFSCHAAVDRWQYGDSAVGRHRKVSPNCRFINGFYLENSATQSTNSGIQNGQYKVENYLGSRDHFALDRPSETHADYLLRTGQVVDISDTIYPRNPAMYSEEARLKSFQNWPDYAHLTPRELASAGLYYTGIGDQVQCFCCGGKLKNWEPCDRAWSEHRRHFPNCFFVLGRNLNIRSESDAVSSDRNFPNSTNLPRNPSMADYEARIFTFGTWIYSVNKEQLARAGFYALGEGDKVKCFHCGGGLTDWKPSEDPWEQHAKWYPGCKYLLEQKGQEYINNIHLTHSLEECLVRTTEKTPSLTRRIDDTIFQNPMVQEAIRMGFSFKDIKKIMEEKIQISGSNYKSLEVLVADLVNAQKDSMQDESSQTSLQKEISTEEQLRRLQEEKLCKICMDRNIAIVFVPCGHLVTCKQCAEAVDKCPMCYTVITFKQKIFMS
Chain of Baculoviral IAP repeat-containing protein 2 (Q13490 whole entry, the tested form may be a part): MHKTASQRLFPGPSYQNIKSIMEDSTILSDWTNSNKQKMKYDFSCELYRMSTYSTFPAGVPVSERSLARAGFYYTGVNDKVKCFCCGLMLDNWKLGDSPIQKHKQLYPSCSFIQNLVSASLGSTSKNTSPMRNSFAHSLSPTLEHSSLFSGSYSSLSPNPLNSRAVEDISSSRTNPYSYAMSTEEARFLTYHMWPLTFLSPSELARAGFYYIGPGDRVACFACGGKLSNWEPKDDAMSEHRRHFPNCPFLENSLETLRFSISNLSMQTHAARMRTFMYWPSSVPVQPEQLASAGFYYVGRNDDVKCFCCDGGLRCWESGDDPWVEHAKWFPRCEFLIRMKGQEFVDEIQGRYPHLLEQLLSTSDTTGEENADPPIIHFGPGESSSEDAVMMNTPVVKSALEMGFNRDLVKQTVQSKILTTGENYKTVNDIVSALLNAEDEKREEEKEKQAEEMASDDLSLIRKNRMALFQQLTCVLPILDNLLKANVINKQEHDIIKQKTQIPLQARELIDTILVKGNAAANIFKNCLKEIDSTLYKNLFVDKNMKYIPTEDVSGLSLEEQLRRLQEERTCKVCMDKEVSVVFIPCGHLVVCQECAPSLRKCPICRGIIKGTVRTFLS

| SMILES | IC50 [1] [nM] | IC50 [2] [nM] | Activity [3] | Ki [4] [nM] | IC50 [5] [nM] | IC50 [6] [nM] |
| --- | --- | --- | --- | --- | --- | --- |
| CN[C@@H](C)C(=O)N[C@H]1CCCNC(=O)[C@H](Cc2ccccc2)NC(=O)[C@@H]2CCCN2C(=O)[C@@H](NC(=O)[C@H](C)NC)CCCNC(=O)[C@H](Cc2ccccc2)NC(=O)[C@@H]2CCCN2C1=O | 4600 | 481 | Dose-dependent effect | 84 | 1 | 15900 |
| CN[C@@H](C)C(=O)N[C@H]1CCCCn2cc(nn2)[C@H](Cc2ccccc2)NC(=O)[C@@H]2CCCN2C(=O)[C@@H](NC(=O)[C@H](C)NC)CCCCn2cc(nn2)[C@H](Cc2ccccc2)NC(=O)[C@@H]2CCCN2C1=O | 25900 | – | Dose-dependent effect | 161 | – | 31500 |
| CN[C@@H](C)C(=O)N[C@H]1CCCCn2cc(nn2)[C@H](c2ccccc2)NC(=O)[C@@H]2CCCN2C(=O)[C@@H](NC(=O)[C@H](C)NC)CCCCn2cc(nn2)[C@H](c2ccccc2)NC(=O)[C@@H]2CCCN2C1=O | – | – | Dose-dependent effect | – | – | – |
